{"source": "patent US5506271A", "about": "“Method of treating papilloma virus infection using hypericin” (New York University, priority 1993, dated 1996)", "key": {"[1]": {"assay": "Solubility of hypericin ion pair and salt forms in organic solvents", "type": "physicochemical", "excerpt": "As indicated above, hypericin has hydroxy groups at R^1 and R^2 in its free acid form. Upon reaction with a base, the free acid form of hypericin ionizes at R^1 and R^2. Under alkaline conditions below about pH 11.5, only one of these hydroxy groups ionize to form a salt with the base. At more alkaline conditions, both hydroxy groups ionize to form a salt with two basic cations. The salt with two basic cations has substantially different physical properties as that with one cation. […] To differentiate these two forms of hypericin, the former, which behaves as an organic compound, will be referred to herein as an ion pair and the latter as a salt."}, "Friend virus [2]": {"system": "Friend virus", "assay": "Inactivation of Friend virus by hypericin, Rose Bengal and combinations, splenomegaly (FIG. 9)", "type": "in vivo, BALB/C mice", "conditions": "agents at 2-5 mg/ml, 1 hour on ice, virus 1:2000, spleen weight day 14", "protocol": "FIG. 9 is a graph showing the inactivation of Friend virus by Hypericin, Rose Bengal and combinations thereof. Friend virus was diluted 1:2000 in PBS and incubated with no hypericin or concentrations of hypericin of 1, 2, or 5 mg/ml alone, or in combination with Rose Bengal (RB) at concentrations of 2 and 5 mg/ml for 1 hour on ice. The treated virus preparations were injected into BALB/C mice. On day 14, 1 mouse from each group was sacrificed and analyzed for spleen weight.\nFIGS. 9 and 10 show the results of a study in which Friend virus was treated with hypericin, Rose Bengal or combinations of hypericin and Rose Bengal at different concentrations and ratios. The virus treated in this manner was injected into BALB/C mice. […] Lack of, or suppression of, splenomegaly serves as an index of the degrees of virus inactivation. […] This proves that virus inactivation by both agents, alone and in combination, was effective."}, "[3]": {"system": "purified reverse transcriptase enzyme", "assay": "Enzymatic activity of purified reverse transcriptase enzyme", "type": "biochemical", "conditions": "assay conditions used, FIG. 2", "protocol": "(§1) Thus it is much more difficult to measure reverse transcriptase from virus treated with hypericin prior to exposure to detergent than with virus first disrupted with detergent and then incubated with hypericin."}, "Friend virus [4]": {"system": "Friend virus", "assay": "Protective effect of virus preparations inactivated with hypericin, Rose Bengal or combinations against live Friend virus challenge (FIG. 10)", "type": "in vivo, BALB/C mice", "conditions": "challenge day 21, spleens weighed after 15 days", "excerpt": "FIG. 10 is a graph showing the protective effect of the inactivated virus preparations described in FIG. 9. On day 21 after administration of the treated virus preparation, all animals were challenged with live Friend virus. Also included were control groups of mice injected with live Friend virus, and mice injected with PBS only. After 15 days, all mice were sacrificed and their spleens weighed as a measure of protection.\nIn this experiment, inhibition of splenomegaly served as the measure of protection resulting from immunogenicity of the virus preparations."}, "retroviral particles": {"system": "retroviral particles", "assay": "Detergent-mediated (Triton X-100) release of reverse transcriptase from hypericin-treated viral particles", "type": "biochemical", "protocol": "as §1\nThe effects on virion-encapsulated enzyme are presumed to be due to the failure of the capsids, within which the […] is sequestered, to be disrupted after hypericin treatment."}, "HIV [5]": {"system": "HIV", "assay": "HIV infectivity monitored by HIV-induced destruction of CEM ×174 cultures infected with dilutions of hypericin-treated virus", "type": "cell-based", "conditions": "for log reduction at 10 µg/mL: hypericin 10 μg/ml", "protocol": "Hypericin can effectively inactivate retroviral particles rendering them non infectious.\nIn these experiments infectivity was monitored by HIVinduced destruction\nof CEM ×174 after these cultures were infected with increasing\ndilutions of hypericintreated virus. For Experiment 2, virus was incubate\n(§2) overnight with hypericin at 4° C.. RT: reverse transcriptase"}, "HIV [6]": {"system": "HIV", "assay": "Effect of light on hypericin reduction of HIV infectivity titer for H9 target cells, limiting dilution assay", "type": "cell-based", "conditions": "ambient light; FIG. 5", "excerpt": "FIG. 5 is a graph showing the effect of ambient light treatment on hypericin's ability to reduce the infectivity titer of HIV for H9 target cells, measured in a limiting dilution assay."}, "[7]": {"system": "Friend leukemia virus (FLV)", "assay": "Inactivation of Friend leukemia virus by extracorporeal hypericin treatment, splenomegaly in mice", "type": "in vivo, BALB/c mice", "protocol": "FIG. 6 is a graph showing the inactivation of Friend leukemia virus (FLV) extracorporeal treatment with hypericin. Virus infectivity is measured as splenomegaly. Uninfected mice generally have spleen weights in the range of 0.08 to 0.2 grams.\nSynthetic hypericin prepared from emodin was solubilized in 0.5% aqueous benzyl alcohol and administered to a concentrated stock of Friend virus estimated to contain greater than 10^4 virus focus forming units at final hypericin concentrations of 1 μg/ml and 5 μg/ml. The mixture was incubated on ice for one hour. A control preparation was incubated in parallel in the absence of the compound. Additional experimental groups were exposed to light from a 200 watt visible light halogen source in the presence of equivalent hypericin concentrations for 1×30 seconds and 2×30 seconds respectively.\nThe treated virus was diluted in phosphate buffered saline (PBS) to final dilutions of 1:500 and of 1:2000. The diluted treated and control virus preparations were injected intraperitoneally into BALB/c mice (3 mice per group). A single mouse from each group was sacrificed on day 11 for assessment of spleen size in order to determine the degree of FLV inactivation by hypericin."}, "[8]": {"system": "Radiation leukemia virus (RadLV)", "assay": "Guanidinium hydrochloride extraction of RNA from hypericin-treated virions", "design": "species or system murine", "conditions": "virions treated with hypericin prior to GuHCl disruption; FIG. 3", "excerpt": "The present inventors have further discovered that hypericin-treated retroviral particles become more resistant to dissociation by harsh denaturing reagents such as guanidinium hydrochloride (GuHCl). These denaturing agents effectively disrupt hydrogen bonding, thereby unfolding tertiary and quaternary structures of proteins and causing dissociation of bonded proteins and the collapse of biological structures."}, "[9]": {"system": "HIV reverse transcriptase activity", "assay": "Reverse transcriptase activity of hypericin-treated HIV", "type": "biochemical", "conditions": "Expt 1", "protocol": "Hypericin Reduces Infectivity and Reverse Transcriptase\nActivity of HIV Infecting CEM × 14 Cells\nas §2"}, "murine RadLV particles": {"system": "murine RadLV particles", "assay": "Inactivation of RadLV particles by hypericin with Rose Bengal (particle-derived reverse transcriptase)", "type": "biochemical", "conditions": "Rose Bengal 1-2 μg/ml, hypericin 0.001-1 μg/ml; FIG. 4", "protocol": "Assays for virus particle-derived reverse transcriptase were performed according to Stephenson, J. R. et al., Virology 48:749-756 (1972)).\nHypericin is a photodynamic agent which, in the presence of light, produces excited oxygen species such as singlet oxygen and superoxide radicals. These excited oxygen species play a role in the antiviral and antiretroviral activity of hypericin and hypericin analogs. While this property of producing excited oxygen species may account for inactivation of the virus or retrovirus particle, it is not sufficient to explain the enhanced immunogenicity of the inactivated virus. Support for this notion comes from experimental findings by the present inventors using another photodynamic agent, Rose Bengal. Rose Bengal also produces excited oxygen species, is also capable of inactivating retroviral particles and interacts synergistically with hypericin in inactivating the virus."}}, "note": "“Also recorded” adds a separate entry of the source. Where two headings read alike, the source gives them in different places."}
{"molecule": "Cc1cc(O)c2c(=O)c3c(O)cc(O)c4c5c(O)cc(O)c6c(=O)c7c(O)cc(C)c8c1c2c(c34)c(c78)c65", "note": "[hypericin]", "values": [{"measurement": "solubility in organic solvents", "setting": "[1]; above pH 11.5 (salt, two cations)", "value": "substantially insoluble in organic solvents"}, {"measurement": "solubility in organic solvents", "setting": "[1]; below pH 11.5 (ion pair, one cation)", "value": "soluble in organic solvents"}, {"measurement": "suppression of virus-induced splenomegaly (virus inactivation)", "setting": "Friend virus [2]", "value": "effectively suppressed virus-induced splenomegaly"}, {"measurement": "effect on reverse transcriptase enzymatic activity", "setting": "[3]", "value": "no effect on reverse transcriptase enzymatic activity; also recorded: does not directly affect enzymatic activity of purified reverse transcriptase enzyme"}, {"measurement": "protection from live virus challenge (immunogenicity of inactivated virus preparation)", "setting": "Friend virus [4]", "value": "greatest degree of protection"}, {"measurement": "detergent-mediated release of reverse transcriptase activity from viral particles", "setting": "retroviral particles; 0.5-1% Triton X-100, FIG. 1", "value": "prevents detergent-mediated (0.5-1% Triton X-100) release of reverse transcriptase activity"}, {"measurement": "resistance of virion to disruption with non-ionic detergents", "setting": "retroviral particles; 1% aqueous Triton X-100", "value": "more resistant to disruption"}, {"measurement": "log reduction at 10 µg/mL", "setting": "HIV [5]; Human immunodeficiency virus 1, CEM174, Expt 1, read-out: INHIBITION (Log1 0 Reduction) INFECTIVITY", "value": 4}, {"measurement": "log reduction at 25 µg/mL", "setting": "HIV [5]; Human immunodeficiency virus 1, CEM174, Expt 1, hypericin 25 μg/ml, read-out: INHIBITION (Log1 0 Reduction) INFECTIVITY", "value": 4.75}, {"measurement": "log reduction at 1 µg/mL", "setting": "HIV [5]; Human immunodeficiency virus 1, CEM174, Expt 2, hypericin 1 μg/ml, virus incubated overnight at 4° C., read-out: INHIBITION (Log1 0 Reduction) INFECTIVITY", "value": 0}, {"measurement": "log reduction at 2 µg/mL", "setting": "HIV [5]; Human immunodeficiency virus 1, CEM174, Expt 2, hypericin 2 μg/ml, virus incubated overnight at 4° C., read-out: INHIBITION (Log1 0 Reduction) INFECTIVITY", "value": 3.75}, {"measurement": "log reduction at 5 µg/mL", "setting": "HIV [5]; Human immunodeficiency virus 1, CEM174, Expt 2, hypericin 5 μg/ml, virus incubated overnight at 4° C., read-out: INHIBITION (Log1 0 Reduction) INFECTIVITY", "value": 4.25}, {"measurement": "log reduction at 10 µg/mL", "setting": "HIV [5]; Human immunodeficiency virus 1, CEM174, Expt 2, virus incubated overnight at 4° C., read-out: INHIBITION (Log1 0 Reduction) INFECTIVITY", "value": 4.75}, {"measurement": "HIV infectivity titers diminished", "setting": "HIV [5]; after treatment with hypericin (summary of Table 3)", "value": "3-4 logs"}, {"measurement": "effect of light on antiviral activity of hypericin", "setting": "HIV [6]", "value": "Light can enhance the antiviral activity"}, {"measurement": "effect of increased light exposure on FV inactivation by hypericin", "setting": "[7]; 200 watt visible light halogen source, 1×30 and 2×30 seconds", "value": "did not enhance the ability of hypericin to inactivate FV"}, {"measurement": "virus-induced splenomegaly after injection of hypericin-treated FLV", "setting": "[7]; hypericin 1 and 5 μg/ml, 1 hour on ice, i.p. BALB/c mice, spleen size day 11, FIG. 6", "value": "significantly reduced the ability of the virus to induce splenomegaly; also recorded: absence or presence of minimal splenomegaly"}, {"measurement": "extraction of viral RNA by guanidinium hydrochloride", "setting": "[8]", "value": "dramatic inhibition of the ability of guanidinium hydrochloride to extract RNA; also recorded: yields of extractable RNA were markedly reduced"}, {"measurement": "INHIBITION (Log1 0 Reduction) RT", "setting": "[9]; hypericin 10 μg/ml", "value": 0.60, "unit": "Log1 0 Reduction"}, {"measurement": "INHIBITION (Log1 0 Reduction) RT", "setting": "[9]; hypericin 25 μg/ml", "value": 1.72, "unit": "Log1 0 Reduction"}]}
{"molecule": "O=C1OC2(c3cc(I)c(O)c(I)c3Oc3c2cc(I)c(O)c3I)c2c(Cl)c(Cl)c(Cl)c(Cl)c21", "note": "[Rose Bengal]", "values": [{"measurement": "effect of Rose Bengal on hypericin inactivation of retroviral particles", "setting": "murine RadLV particles", "value": "enhances the ability of hypericin; also recorded: enhanced the ability of hypericin to inactivate retroviral particles"}, {"measurement": "suppression of virus-induced splenomegaly (virus inactivation)", "setting": "Friend virus [2]", "value": "effectively suppressed virus-induced splenomegaly"}, {"measurement": "protection from live virus challenge (immunogenicity of inactivated virus preparation)", "setting": "Friend virus [4]", "value": "does not cause marked enhancement of immunogenicity"}, {"measurement": "protection from live virus challenge (immunogenicity of inactivated virus preparation)", "setting": "Friend virus [4]; listed as Rose-Bengal", "value": "lower levels of protection"}]}
